Each compound was assayed on ER-alpha MCF7 (assay: ER-alpha MCF7 HCS EC50; stated as measured by in vitro cell proliferation assays of Examples 902 and 903). Conditions: Homo sapiens, MCF7, MCF7 cells; Table 2.
Type: cell-based
Outline: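 MCF7 cells seeded 1000-2000 cells/well for 16 h, then treated with nine-point 1:2 DMSO dilution series in quadruplicate at 37 °C, 5% CO2 for 4 days. Viable cells quantified by CellTiter-Glo ATP luminescence; EC50 calculated. Controls: fulvestrant at final 100 nM, DMSO 0.2% v/v.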

SMILES | EC50 [nM]
C[C@@H]1Cc2c([nH]c3ccccc23)[C@@H](c2c(F)cc(OCCN3CC(CF)C3)cc2F)N1CC1CC1 [Example 186, (1R,3R)-2-(cyclopropylmethyl)-1-[2,6-difluoro-4-[2-[3-(fluoromethyl)azetidin-1-yl]ethoxy]phenyl]-3-methyl-1,3,4,9-tetrahydropyrido[3,4-b]indole] | 2
C[C@@H]1Cc2c([nH]c3ccccc23)[C@@H](c2c(F)cc(OC3CN(CCC4CC4)C3)cc2F)N1CC(C)(C)F [Example 187, (1R,3R)-1-[4-[1-(2-cyclopropylethyl)azetidin-3-yl]oxy-2,6-difluoro-phenyl]-2-(2-fluoro-2-methyl-propyl)-3-methyl-1,3,4,9-tetrahydropyrido[3,4-b]indole] | 1
C=CCN1CC(Oc2cc(F)c([C@@H]3c4[nH]c5ccccc5c4C[C@@H](C)N3CC(C)(C)F)c(F)c2)C1 [Example 188, (1R,3R)-1-[4-(1-allylazetidin-3-yl)oxy-2,6-difluoro-phenyl]-2-(2-fluoro-2-methyl-propyl)-3-methyl-1,3,4,9-tetrahydropyrido[3,4-b]indole] | 0.128
C[C@@H]1Cc2c([nH]c3ccccc23)[C@@H](c2c(F)cc(OC3CN(CC4CCC4)C3)cc2F)N1CC(C)(C)F [Example 189, (1R,3R)-1-[4-[1-(cyclobutylmethyl)azetidin-3-yl]oxy-2,6-difluoro-phenyl]-2-(2-fluoro-2-methyl-propyl)-3-methyl-1,3,4,9-tetrahydropyrido[3,4-b]indole] | 1
CC(C)CCN1CC(Oc2cc(F)c([C@@H]3c4[nH]c5ccccc5c4C[C@@H](C)N3CC(C)(C)F)c(F)c2)C1 [Example 190, (1R,3R)-1-[2,6-difluoro-4-(1-isopentylazetidin-3-yl)oxy-phenyl]-2-(2-fluoro-2-methyl-propyl)-3-methyl-1,3,4,9-tetrahydropyrido[3,4-b]indole] | 2
CCC(C)CN1CC(Oc2cc(F)c([C@@H]3c4[nH]c5ccccc5c4C[C@@H](C)N3CC(C)(C)F)c(F)c2)C1 (stereo partly drawn) [Example 191, (1R,3R)-1-(2,6-difluoro-4-((1-(2-methylbutyl)azetidin-3-yl)oxy)phenyl)-2-(2-fluoro-2-methylpropyl)-3-methyl-2,3,4,9-tetrahydro-1H-pyrido[3,4-b]indole] | 0.267
CCCC(C)N1CC(Oc2cc(F)c([C@@H]3c4[nH]c5ccccc5c4C[C@@H](C)N3CC(C)(C)F)c(F)c2)C1 (stereo partly drawn) [Example 192, (1R,3R)-1-(2,6-difluoro-4-((1-(pentan-2-yl)azetidin-3-yl)oxy)phenyl)-2-(2-fluoro-2-methylpropyl)-3-methyl-2,3,4,9-tetrahydro-1H-pyrido[3,4-b]indole] | 1
C[C@@H]1Cc2c([nH]c3ccccc23)[C@@H](c2c(F)cc(OC3CN(C4CCC4)C3)cc2F)N1CC(C)(C)F [Example 193, (1R,3R)-1-[4-(1-cyclobutylazetidin-3-yl)oxy-2,6-difluoro-phenyl]-2-(2-fluoro-2-methyl-propyl)-3-methyl-1,3,4,9-tetrahydropyrido[3,4-b]indole] | 0.484
C[C@@H]1Cc2c([nH]c3ccccc23)[C@@H](c2c(F)cc(OC3CN(C4COC4)C3)cc2F)N1CC(C)(C)F [Example 194, (1R,3R)-1-[2,6-difluoro-4-[1-(oxetan-3-yl)azetidin-3-yl]oxy-phenyl]-2-(2-fluoro-2-methyl-propyl)-3-methyl-1,3,4,9-tetrahydropyrido[3,4-b]indole] | 0.077
C[C@@H]1Cc2c([nH]c3ccccc23)[C@@H](c2c(F)cc(OC3CN(C4CC4)C3)cc2F)N1CC(C)(C)F [Example 195, (1R,3R)-1-[4-(1-cyclopropylazetidin-3-yl)oxy-2,6-difluoro-phenyl]-2-(2-fluoro-2-methyl-propyl)-3-methyl-1,3,4,9-tetrahydropyrido[3,4-b]indole] | 0.165
C[C@@H]1Cc2c([nH]c3ccccc23)[C@@H](c2c(F)cc(SC3CN(CCCF)C3)cc2F)N1CC(C)(C)F [Example 196, (1R,3R)-1-[2,6-difluoro-4-[1-(3-fluoropropyl)azetidin-3-yl]sulfanyl-phenyl]-2-(2-fluoro-2-methyl-propyl)-3-methyl-1,3,4,9-tetrahydropyrido[3,4-b]indole] | 0.271
CC(C)CN1[C@H](c2c(F)cc(OCCN3CC(CF)C3)cc2F)c2[nH]c3ccccc3c2C[C@H]1C [Example 197, (1R,3R)-1-[2,6-difluoro-4-[2-[3-(fluoromethyl)azetidin-1-yl]ethoxy]phenyl]-2-isobutyl-3-methyl-1,3,4,9-tetrahydropyrido[3,4-b]indole] | 1
C[C@@H]1Cc2c([nH]c3ccccc23)[C@@H](c2c(F)cc(OCCN3CC(CF)C3)cc2F)N1C[C@H](C)c1ccccc1 [Example 198, (1R,3R)-1-(2,6-difluoro-4-(2-(3-(fluoromethyl)azetidin-1-yl)ethoxy)phenyl)-3-methyl-2-((R)-2-phenylpropyl)-2,3,4,9-tetrahydro-1H-pyrido[3,4-b]indole] | 2
C[C@H](CN1[C@H](c2c(F)cc(OCCN3CC(CF)C3)cc2F)c2[nH]c3ccccc3c2C[C@H]1C)c1ccccc1 [Example 199, (1R,3R)-1-(2,6-difluoro-4-(2-(3-(fluoromethyl)azetidin-1-yl)ethoxy)phenyl)-3-methyl-2-((S)-2-phenylpropyl)-2,3,4,9-tetrahydro-1H-pyrido[3,4-b]indole] | 2.32

Other lines, results leading:

EC50 [nM] | SMILES
0.408 | CCCN1CC(Oc2cc(F)c([C@@H]3c4[nH]c5ccccc5c4C[C@@H](C)N3CC(C)C)c(F)c2)C1 [Example 200, (1R,3R)-1-[2,6-difluoro-4-(1-propylazetidin-3-yl)oxy-phenyl]-2-isobutyl-3-methyl-1,3,4,9-tetrahydropyrido[3,4-b]indole]
0.315 | C[C@@H]1Cc2c([nH]c3ccccc23)[C@@H](c2ccc(OC3CN(CCCF)C3)cc2)N1CC(C)(C)F [Example 201, (1R,3R)-2-(2-fluoro-2-methyl-propyl)-1-[4-[1-(3-fluoropropyl)azetidin-3-yl]oxyphenyl]-3-methyl-1,3,4,9-tetrahydropyrido[3,4-b]indole]
0.1 | C[C@@H]1Cc2c([nH]c3ccccc23)[C@@H](c2c(F)cc(OC3CN(CCCF)C3)cc2F)N1S(C)(=O)=O [Example 202, (1R,3R)-1-[2,6-difluoro-4-[1-(3-fluoropropyl)azetidin-3-yl]oxy-phenyl]-3-methyl-2-methylsulfonyl-1,3,4,9-tetrahydropyrido[3,4-b]indole]
0.371 | C[C@@H]1Cc2c([nH]c3ccccc23)[C@@H](c2c(F)cc(OC[C@H](C)N3CC(C(F)F)C3)cc2F)N1CC(C)(C)F [Example 204, (1R,3R)-1-[4-[(2S)-2-[3-(difluoromethyl)azetidin-1-yl]propoxy]-2,6-difluoro-phenyl]-2-(2-fluoro-2-methyl-propyl)-3-methyl-1,3,4,9-tetrahydropyrido[3,4-b]indole]
0.375 | C[C@@H]1Cc2c([nH]c3ccccc23)[C@@H](c2c(F)cc(OCCN3CC(F)(CF)C3)cc2F)N1CC(C)(C)F [Example 205, (1R,3R)-1-[2,6-difluoro-4-[2-[3-fluoro-3-(fluoromethyl)azetidin-1-yl]ethoxy]phenyl]-2-(2-fluoro-2-methyl-propyl)-3-methyl-1,3,4,9-tetrahydropyrido[3,4-b]indole]
31 | C[C@@H]1Cc2c([nH]c3ccccc23)[C@@H](c2c(F)cc(OCCN3CC(CF)C3)cc2F)N1C(=O)CCC#N [Example 206, 4-[(1R,3R)-1-[2,6-difluoro-4-[2-[3-(fluoromethyl)azetidin-1-yl]ethoxy]phenyl]-3-methyl-1,3,4,9-tetrahydropyrido[3,4-b]indol-2-yl]-4-oxo-butanenitrile]
13 | C[C@@H]1Cc2c([nH]c3ccccc23)[C@@H](c2c(F)cc(OCCN3CC(CF)C3)cc2F)N1CC1CCCCC1 [Example 207, (1R,3R)-2-(cyclohexylmethyl)-1-[2,6-difluoro-4-[2-[3-(fluoromethyl)azetidin-1-yl]ethoxy]phenyl]-3-methyl-1,3,4,9-tetrahydropyrido[3,4-b]indole]
0.066 | C[C@@H]1Cc2c([nH]c3ccccc23)[C@@H](c2c(F)cc(OC3CN(CCC4COC4)C3)cc2F)N1CC(C)(C)F [Example 208, (1R,3R)-1-[2,6-difluoro-4-[1-[2-(oxetan-3-yl)ethyl]azetidin-3-yl]oxy-phenyl]-2-(2-fluoro-2-methyl-propyl)-3-methyl-1,3,4,9-tetrahydropyrido[3,4-b]indole]
8 | C[C@@H]1Cc2c([nH]c3ccccc23)[C@@H](c2c(F)cc(OC3CN(CC4CCCCC4)C3)cc2F)N1CC(C)(C)F [Example 209, (1R,3R)-1-[4-[1-(cyclohexylmethyl)azetidin-3-yl]oxy-2,6-difluoro-phenyl]-2-(2-fluoro-2-methyl-propyl)-3-methyl-1,3,4,9-tetrahydropyrido[3,4-b]indole]
0.1 | C[C@@H]1Cc2c([nH]c3ccccc23)[C@@H](c2ccc(OCCN3CC(CF)C3)cc2Cl)N1CC(C)(C)F [Example 210, (1R,3R)-1-[2-chloro-4-[2-[3-(fluoromethyl)azetidin-1-yl]ethoxy]phenyl]-2-(2-fluoro-2-methyl-propyl)-3-methyl-1,3,4,9-tetrahydropyrido[3,4-b]indole]
0.2 | C[C@@H]1Cc2c([nH]c3ccccc23)[C@@H](c2ccc(OC3CN(CCCF)C3)cc2Cl)N1CC(C)(C)F [Example 211, (1R,3R)-1-[2-chloro-4-[1-(3-fluoropropyl)azetidin-3-yl]oxy-phenyl]-2-(2-fluoro-2-methyl-propyl)-3-methyl-1,3,4,9-tetrahydropyrido[3,4-b]indole]
1 | CC(O)CC(=O)N1[C@H](c2c(F)cc(OCCN3CC(CF)C3)cc2F)c2[nH]c3ccccc3c2C[C@H]1C (stereo partly drawn) [Example 212, 1-((1R,3R)-1-(2,6-difluoro-4-(2-(3-(fluoromethyl)azetidin-1-yl)ethoxy)phenyl)-3-methyl-3,4-dihydro-1H-pyrido[3,4-b]indol-2(9H)-yl)-3-hydroxybutan-1-one]

Reference: patent publication US20250114338A1, “TETRAHYDRO-PYRIDO[3,4-b]INDOLE ESTROGEN RECEPTOR MODULATORS AND USES THEREOF” (Genentech, Inc., priority 2014, published 2025)
